Test: mn = molality of the nth substance listed, in mol/kg
Conditions: 101.33 kPa, Liquid; for speed of sound: Frequency=2 MHz, Linear variable-path acoustic interferometer; for mass density: Pycnometric method

O=C([O-])c1ccccc1O.[Na+] [sodium salicylate] + O
Conditions	mass density, 288.15 K [kg/m3]	mass density, 298.15 K [kg/m3]	mass density, 308.15 K [kg/m3]	speed of sound, 288.15 K [m/s]	speed of sound, 298.15 K [m/s]	speed of sound, 308.15 K [m/s]
m1 = 0.01	–	–	994.69	–	–	1520.8
m1 = 0.0101	999.8	997.73	–	1466.8	1497.6	–
m1 = 0.0221	1000.62	998.51	995.46	1467.9	1498.8	1521.9
m1 = 0.0307	1001.19	999.07	–	1468.7	1499.6	–
m1 = 0.0333	–	–	996.16	–	–	1523
m1 = 0.04	–	–	996.59	–	–	1523.6
m1 = 0.0448	1002.19	1000	–	1470	1501	–
m1 = 0.0451	–	–	996.9	–	–	1524.2
m1 = 0.0501	1002.51	1000.34	997.24	1470.5	1501.5	1524.6
m1 = 0.0546	1002.85	1000.67	–	1470.8	1501.9	–
m1 = 0.0572	–	–	997.65	–	–	1525.3
m1 = 0.06	1003.2	1001.01	–	1471.4	1502.4	–
m1 = 0.0667	1003.66	–	–	1472	–	–
m1 = 0.0702	–	–	998.5	–	–	1526.5
m1 = 0.0704	1003.92	1001.66	–	1472.3	1503.5	–
m1 = 0.0802	1004.55	1002.35	999.1	1473.2	1504.4	1527.5
m1 = 0.0848	1004.87	1002.59	–	1473.6	1504.9	–
m1 = 0.0857	–	–	999.47	–	–	1528
m1 = 0.0906	1005.23	–	999.8	1474.2	–	1528.4
m1 = 0.0907	–	1002.99	–	–	1505.4	–
m1 = 0.0951	–	1003.26	1000.07	–	1505.8	1528.9
m1 = 0.1018	–	1003.68	–	–	1506.5	–
m1 = 0.1019	1006	–	–	1475.2	–	–
m1 = 0.1023	–	–	1000.5	–	–	1529.6
